Reference: paper PMC3052630 (Bioorganic & medicinal chemistry letters, 2011)

How the values were obtained:
rat pharmacokinetics = format: in vivo
p38 = p38 (Homo sapiens, UniProt Q16539); test: p38 biochemical inhibition / selectivity; details: for selectivity over p38: JNK3 vs p38
[1] = mouse plasma and brain levels; format: in vivo; details: 10 mg/kg ip 2h

Chain of p38 (Q16539 whole entry): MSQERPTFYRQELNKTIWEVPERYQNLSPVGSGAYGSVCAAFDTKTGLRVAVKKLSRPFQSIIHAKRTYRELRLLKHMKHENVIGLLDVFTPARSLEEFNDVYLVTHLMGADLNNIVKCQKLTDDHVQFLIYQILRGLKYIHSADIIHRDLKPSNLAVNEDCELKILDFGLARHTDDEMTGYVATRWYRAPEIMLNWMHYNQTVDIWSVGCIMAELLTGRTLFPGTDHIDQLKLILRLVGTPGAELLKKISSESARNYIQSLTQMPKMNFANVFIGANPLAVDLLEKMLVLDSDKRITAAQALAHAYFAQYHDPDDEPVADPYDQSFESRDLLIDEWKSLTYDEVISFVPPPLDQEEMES

Compound: Cc1ncn(-c2ccc(Nc3ncc4cccc(-c5nccs5)c4n3)cc2)n1 [9g]
- PK properties (rat pharmacokinetics; data not shown, species not given): poor

Compound: Cn1cc(-c2ccc3cnc(Nc4ccc(-n5cnc(N6CCOCC6)n5)cc4)nc3c2Cl)cn1 [13a]
- selectivity over p38 (p38): > 500 fold
- clearance (rat pharmacokinetics; rat, plasma, iv, 1 mg/kg): 6 mL/min/kg

Compound: Cn1cc(-c2ccc3cnc(Nc4ccc(-n5cnc(N6CCOCC6)n5)cc4)nc3c2)cn1 [compound 3]
- mouse [brain] [1]: 7.2 µM

Compound: Cc1ccc(-c2cccc3cnc(Nc4ccc(-n5cnc(N6CCOCC6)n5)cc4)nc23)cn1 [9a]
- mouse [plasma] [1]: 2.72 µM

Compound: Cn1cc(-c2ccc3cnc(Nc4ccc(-n5cnc(N6CCOCC6)n5)cc4)nc3c2-c2cnn(C)c2)cn1 [14d]
- IC50 (p38): > 20 µM
- selectivity over p38 (p38): > 2200 fold
